Measured values from ChEMBL document CHEMBL1201862, “PubChem BioAssay data set” (2004).
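48-hour exposure; five concentrations; linearly interpolated endpoints. GI50 is the concentration that inhibits growth by half.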 Calls of active or inactive are those of the source. No stated cut-off is given here; in the data, active = GI50 up to about 1.1 µM and inactive = higher.

Assays:
Assay in all cases: DTP human tumour cell line panel, 48 h
786-0 = test system: 786-0
A498 = test system: A498
BT-549 = test system: BT-549
COLO 205 = test system: COLO 205
HCT-116 = test system: HCT-116
HL-60 = test system: HL-60
HOP-62 = test system: HOP-62
Hs-578T = test system: Hs-578T
LOX IMVI = test system: LOX IMVI
M14 = test system: M14
MDA-MB-435 = test system: MDA-MB-435
MOLT-4 = test system: MOLT-4
NCI/ADR-RES = test system: NCI/ADR-RES
OVCAR-5 = test system: OVCAR-5
PC-3 = test system: PC-3
SF-295 = test system: SF-295
SNB-19 = test system: SNB-19
IGROV-1 = test system: IGROV-1
T47D = test system: T47D

SMILES	GI50 (786-0)	GI50 (A498)	GI50 (BT-549)	GI50 (COLO 205)	GI50 (HCT-116)	GI50 (HL-60)	GI50 (HOP-62)	GI50 (Hs-578T)	GI50 (LOX IMVI)	GI50 (M14)	GI50 (MDA-MB-435)	GI50 (MOLT-4)	GI50 (NCI/ADR-RES)	GI50 (OVCAR-5)	GI50 (PC-3)	GI50 (SF-295)	GI50 (SNB-19)	GI50 (IGROV-1)	GI50 (T47D)
COc1cc2c(cc1OCCCN1CCN(C)CC1)N=C[C@@H]1CCCN1C2=O	3.4 µM (inactive)	2.34 µM (inactive)	1.77 µM (inactive)	1.02 µM (active)	2.7 µM (inactive)	1.41 µM (inactive)	3.44 µM (inactive)	5.12 µM (inactive)	1.49 µM (inactive)	1.86 µM (inactive)	1.9 µM (inactive)	0.32 µM (active)	3.5 µM (inactive)	2.27 µM (inactive)	2.67 µM (inactive)	2 µM (inactive)	4.06 µM (inactive)	–	–
Cc1ccc(NC(=O)/C(CC2Nc3c(ccc4c3C(=O)c3ccccc3C4=O)NC2O)=N/NC(C)(C)C)cc1 (stereo unspecified)	4.52 µM (inactive)	–	22 µM (inactive)	21.5 µM (inactive)	12.5 µM (inactive)	3.97 µM (inactive)	13.8 µM (inactive)	9.4 µM (inactive)	7.23 µM (inactive)	18.7 µM (inactive)	17.7 µM (inactive)	2.37 µM (inactive)	1.67 µM (inactive)	26.5 µM (inactive)	15.8 µM (inactive)	27.9 µM (inactive)	28 µM (inactive)	8.07 µM (inactive)	–
CC(C(O)c1ccccc1)[N+](=O)[O-] (stereo unspecified)	6.93 µM (inactive)	17.5 µM (inactive)	–	22.4 µM (inactive)	37.6 µM (inactive)	4.79 µM (inactive)	25.3 µM (inactive)	28.2 µM (inactive)	2.29 µM (inactive)	6.43 µM (inactive)	18.5 µM (inactive)	1.65 µM (inactive)	28.1 µM (inactive)	24.1 µM (inactive)	22.6 µM (inactive)	28.5 µM (inactive)	24.5 µM (inactive)	14.8 µM (inactive)	15.5 µM (inactive)
C=CCOC(=O)N1c2ccc(O)cc2[C@@]23O[C@@]24[C@@H]1C#C/C=C\C#C[C@]3(O)C(=O)C[C@@H]4C	13.9 µM (inactive)	42.8 µM (inactive)	–	36.6 µM (inactive)	51.5 µM (inactive)	37.8 µM (inactive)	> 100 µM (inactive)	47.5 µM (inactive)	–	39.7 µM (inactive)	27.4 µM (inactive)	14.8 µM (inactive)	65.5 µM (inactive)	28.2 µM (inactive)	34.8 µM (inactive)	> 100 µM (inactive)	> 100 µM (inactive)	62.8 µM (inactive)	> 100 µM (inactive)
CC(C)(C)CC(C)(C)N/C(N)=N/O	> 100 µM (inactive)	> 22.6 µM (inactive)	–	> 100 µM (inactive)	9.71 µM (inactive)	> 55.7 µM (inactive)	> 100 µM (inactive)	15 µM (inactive)	> 100 µM (inactive)	> 100 µM (inactive)	> 100 µM (inactive)	> 100 µM (inactive)	97.3 µM (inactive)	> 100 µM (inactive)	15.1 µM (inactive)	> 100 µM (inactive)	> 100 µM (inactive)	> 86.7 µM (inactive)	> 32.7 µM (inactive)
Cc1csc(NNC(=O)Nc2ccccc2)n1	> 100 µM (inactive)	> 100 µM (inactive)	–	> 100 µM (inactive)	> 100 µM (inactive)	> 100 µM (inactive)	> 100 µM (inactive)	> 100 µM (inactive)	> 100 µM (inactive)	> 100 µM (inactive)	> 100 µM (inactive)	–	> 100 µM (inactive)	> 100 µM (inactive)	> 100 µM (inactive)	> 100 µM (inactive)	> 100 µM (inactive)	> 100 µM (inactive)	> 100 µM (inactive)
COc1ccc(CNc2nc(NCc3ccc(OC)cc3)nc(NC3CCCC3)n2)cc1	4.05 µM (inactive)	–	–	3.05 µM (inactive)	2.64 µM (inactive)	3.34 µM (inactive)	3.07 µM (inactive)	3.07 µM (inactive)	5.78 µM (inactive)	2.91 µM (inactive)	1.48 µM (inactive)	4.59 µM (inactive)	2.7 µM (inactive)	3.63 µM (inactive)	2.84 µM (inactive)	2.18 µM (inactive)	6.28 µM (inactive)	13.4 µM (inactive)	–
Cc1ccc(C(=O)CCC2C(=O)CC(C)(C)CC2=O)cc1	> 100 µM (inactive)	–	> 100 µM (inactive)	> 100 µM (inactive)	> 100 µM (inactive)	–	> 100 µM (inactive)	> 100 µM (inactive)	> 100 µM (inactive)	> 100 µM (inactive)	> 100 µM (inactive)	> 100 µM (inactive)	> 100 µM (inactive)	> 100 µM (inactive)	> 100 µM (inactive)	> 100 µM (inactive)	> 100 µM (inactive)	> 100 µM (inactive)	–
